Assay type in all cases: toxicity, cell-based, Cricetulus griseus, CHO
Data set [1] has as its target NaV1.5 (sodium channel protein type 5 subunit alpha) (Homo sapiens, UniProt Q14524). As to the kind of experiment: (§1) Compounds were solubilised to 10 mM in DMSO and diluted in HBPS to 30 mM. 6-Point concentration-response curves were generated using serial dilutions from the top test concentration. Electrophysiological recordings were made from a Chinese Hamster Ovary cell line stably expressing the full-length ion channel. Single cell ionic currents were measured in whole-cell configuration at room temperature. The internal solution for hNaV1.5 is buffered to pH 7.3, and the external solution is buffered to pH 7.4. The test pulse was applied according to voltage protocol. Compounds were incubated for 2 min to allow stabilization of the parameters. Concentration-response curves were generated by cumulative addition of compound with concentrations low to high. In all cases, steady-state inhibition was achieved before the next concentration of compound was added. To investigate any use-dependence, an 8-pulse voltage protocol is applied at a frequency of 3 Hz. Inhibition is compared at pulse 1 and pulse 8. Any difference in the potency of a compound at P8 versus P1 would be typical of use-dependent block. IC50 values or % inhibition at the top test concentration is obtained. The assay has been performed by Concept Life Sciences Ltd. Particulars: chinese hamster, CHO cells stably expressing full-length hNaV1.5, pH 7.3; top test concentration 30 uM.

Data set [2] concerns the target Sodium channel protein type 5 subunit alpha (Homo sapiens, UniProt Q14524). The description is as §1. Particulars: for Inhibition: chinese hamster, cho, pH 7.3, 2 min, 2 min, top test concentration 30 uM.
The target of data set [3] is Voltage-gated inwardly rectifying potassium channel KCNH2 (Homo sapiens, UniProt Q12809). The data set is described as §1, with “recordings are” for “recordings were”, “currents are” for “currents were”, “for hERG” for “for hNaV1.5”, “added.” for “added. To investigate any use-dependence, an 8-pulse voltage protocol is applied at a frequency of 3 Hz. Inhibition is compared at pulse 1 and pulse 8. Any difference in the potency of a compound at P8 versus P1 would be typical of use-dependent block.”, “% of” for “%”, “at” for “at the”.

For data set [4], the target named is hERG (KCNH2) (Homo sapiens, UniProt Q12809). The data set is described as above. The conditions noted are these: chinese hamster, CHO cells stably expressing full-length hERG, pH 7.3; top test concentration 30 uM. On the technique in general: The hERG channel carries a current that helps repolarise heart muscle cells.

Each structure is given as a SMILES string.

Sequence of Sodium channel protein type 5 subunit alpha (Q14524 whole entry): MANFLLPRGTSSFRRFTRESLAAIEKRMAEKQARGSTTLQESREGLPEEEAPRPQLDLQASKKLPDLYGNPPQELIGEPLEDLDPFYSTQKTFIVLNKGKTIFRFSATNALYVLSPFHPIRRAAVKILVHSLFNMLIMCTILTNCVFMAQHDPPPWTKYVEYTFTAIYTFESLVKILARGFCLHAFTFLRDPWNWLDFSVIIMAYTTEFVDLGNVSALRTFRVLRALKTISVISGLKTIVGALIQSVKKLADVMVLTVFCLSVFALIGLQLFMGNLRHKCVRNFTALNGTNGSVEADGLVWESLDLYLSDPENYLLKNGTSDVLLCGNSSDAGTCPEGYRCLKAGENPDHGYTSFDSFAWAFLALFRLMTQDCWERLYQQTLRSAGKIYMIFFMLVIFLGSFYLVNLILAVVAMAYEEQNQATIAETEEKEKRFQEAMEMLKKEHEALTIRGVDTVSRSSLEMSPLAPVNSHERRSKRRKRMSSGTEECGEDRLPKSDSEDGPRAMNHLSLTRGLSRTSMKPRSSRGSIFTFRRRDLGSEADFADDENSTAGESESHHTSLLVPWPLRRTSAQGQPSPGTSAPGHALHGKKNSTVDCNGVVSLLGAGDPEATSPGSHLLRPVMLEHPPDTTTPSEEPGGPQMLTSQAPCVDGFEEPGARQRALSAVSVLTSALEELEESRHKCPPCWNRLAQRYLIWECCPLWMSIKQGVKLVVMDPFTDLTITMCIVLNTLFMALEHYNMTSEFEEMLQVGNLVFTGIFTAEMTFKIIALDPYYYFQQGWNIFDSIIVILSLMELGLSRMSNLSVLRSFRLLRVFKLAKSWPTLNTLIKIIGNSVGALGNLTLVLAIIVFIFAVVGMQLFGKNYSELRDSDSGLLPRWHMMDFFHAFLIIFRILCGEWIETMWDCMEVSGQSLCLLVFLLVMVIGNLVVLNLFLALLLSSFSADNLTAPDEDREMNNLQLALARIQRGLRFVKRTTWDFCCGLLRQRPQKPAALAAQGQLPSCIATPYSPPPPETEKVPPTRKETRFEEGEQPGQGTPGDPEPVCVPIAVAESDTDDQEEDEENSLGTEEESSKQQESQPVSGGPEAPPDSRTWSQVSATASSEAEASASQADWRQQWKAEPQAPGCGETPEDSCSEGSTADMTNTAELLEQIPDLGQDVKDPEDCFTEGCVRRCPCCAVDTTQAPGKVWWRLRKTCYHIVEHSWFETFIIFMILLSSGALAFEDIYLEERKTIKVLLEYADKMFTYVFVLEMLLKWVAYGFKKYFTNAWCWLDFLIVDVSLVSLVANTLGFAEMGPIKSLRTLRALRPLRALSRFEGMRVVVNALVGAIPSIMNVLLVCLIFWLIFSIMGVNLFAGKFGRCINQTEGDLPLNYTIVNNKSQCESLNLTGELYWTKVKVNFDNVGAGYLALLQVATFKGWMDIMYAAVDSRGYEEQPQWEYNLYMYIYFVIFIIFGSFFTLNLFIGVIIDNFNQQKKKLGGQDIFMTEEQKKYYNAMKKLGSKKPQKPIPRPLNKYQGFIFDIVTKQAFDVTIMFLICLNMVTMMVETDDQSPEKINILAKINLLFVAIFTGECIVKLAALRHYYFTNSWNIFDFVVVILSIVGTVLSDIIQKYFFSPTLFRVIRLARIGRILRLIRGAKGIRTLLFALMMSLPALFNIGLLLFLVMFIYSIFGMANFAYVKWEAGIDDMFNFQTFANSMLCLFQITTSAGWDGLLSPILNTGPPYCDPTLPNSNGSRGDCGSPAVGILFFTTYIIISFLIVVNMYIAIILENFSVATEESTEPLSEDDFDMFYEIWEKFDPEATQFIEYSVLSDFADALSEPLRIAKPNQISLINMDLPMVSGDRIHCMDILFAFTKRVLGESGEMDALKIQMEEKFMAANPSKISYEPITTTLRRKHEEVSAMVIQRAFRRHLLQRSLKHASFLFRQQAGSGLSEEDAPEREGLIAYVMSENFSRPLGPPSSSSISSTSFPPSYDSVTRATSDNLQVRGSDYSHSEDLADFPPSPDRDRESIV
Sequence of NaV1.5 (sodium channel protein type 5 subunit alpha) (Q14524 whole entry): as above

The term inhibition denotes the relative decrease from the control value, in per cent. Lower therefore signals a weak effect. As usually defined, the IC50 is the point on the concentration scale where inhibition reaches its midpoint. Read a low IC50 as inhibition by little substance. Broadly, the Inhibition is the drop in the measured response relative to a control, in per cent. Read a low Inhibition as a weak effect. In data set [1], `Cn1ncc(-c2cc3c(N[C@@H](c4ccc5c(n4)OCCO5)C(C)(C)C)ncnc3[nH]2)c1C#N` came in with an inhibition at 2 min of 17%. In data set [2], this compound gave an IC50 of more than 30 µM and an Inhibition of 21%. In addition, in data set [3], the half-maximal inhibitory concentration (IC50) came out at 19.5 µM.
Regarding `CC(C)[C@@H](Nc1ncnc2[nH]c(C(=O)N[C@@H]3CCN(C)C3)cc12)c1ccc2c(c1)S(=O)(=O)CCC2`, the inhibition at 2 min in data set [1] was 11%. Also, the IC50 in data set [2] and in data set [3] was more than 30 µM each time. The compound also had an Inhibition in data set [3] (chinese hamster, cho, pH 7.3, 2 min, 2 min, top test concentration 30 uM) of 18%.
For `COc1ccc([C@H](Cc2nnn[nH]2)NC(=O)c2ncnc3[nH]ccc23)cc1`, the inhibition at 2 min was 9% in data set [1] and 27% in data set [4]. The IC50 in data set [2] and in data set [3] was more than 30 µM in each case. This compound came in with an Inhibition in data set [2] of 8%.
As to `CNCc1cc(-c2cc3c(N[C@@H](c4ccc5c(c4)S(=O)(=O)CCC5)C(C)C)ncnc3[nH]2)co1`, the values for the inhibition at 2 min in data set [1] and in data set [4] were 10% and 26%, respectively. Besides, the IC50 in data set [2] and in data set [3] was more than 30 µM each time. In data set [2], this compound came in with an Inhibition of 16%.
With `C[C@H](C(=O)O)[C@@H](NC(=O)c1ncnc2[nH]ccc12)c1ccc(Br)cc1`, the inhibition at 2 min in data set [1] came out at 18%; in data set [4], 28%. Further, the IC50 in data set [2] and in data set [3] was more than 30 µM throughout. Further, the Inhibition in data set [2] worked out at 16%.
As to `CNC(=O)Cn1cc(-c2cc3c(N[C@@H](c4ccc5c(c4)S(=O)(=O)CCC5)C(C)C)ncnc3[nH]2)cn1`, the inhibition at 2 min in data set [1] came out at 15%; in data set [4], 23%. Moreover, the IC50 in data set [2] and in data set [3] was more than 30 µM throughout. Moreover, the Inhibition in data set [2] is 26%.
Turning to `CC(C)[C@@H](Nc1ncnc2[nH]c(-c3cnn(C)c3C#N)cc12)c1ccc2c(n1)OCCO2`, the inhibition at 2 min in data set [1] was 27%. Further, in data set [2], the IC50 was more than 30 µM and the Inhibition was found to be 25%. Also, the IC50 in data set [3] came out at 10.1 µM.
In the same order, the values of `CC(C)[C@H](Nc1ncnc2[nH]c(-c3cnn(C)c3C#N)cc12)c1ccc2c(n1)OCCO2` are 33%, more than 30 µM, 35% and 11 µM.
For the compound `CC(C)[C@H](Nc1ncnc2[nH]ccc12)c1ccc2c(c1)S(=O)(=O)CCC2`, the inhibition at 2 min is 19% in data set [1] and 39% in data set [4]. Also, the 50% inhibitory concentration (IC50) in data set [2] and in data set [3] was more than 30 µM each time. For the same compound, the Inhibition in data set [2] amounted to 29%.

Values taken from ChEMBL document CHEMBL5441442, “ASAP - In vitro cardiotoxicity” (2024).
